According to patent US8263754B2, “Amphiphiles for protein solubilization and stabilization” (Wisconsin Alumni Research Foundation, priority 2008, dated 2012):

Assays:
[1] = system: LHI-RC superassembly in Rhodobacter capsulatus membranes; settings: for extraction of LHI-RC superassembly from R. capsulatus membranes: solubilized protein, optical spectroscopy; for Level (S/P solubilization rank and detergent strength): detergent at 10x CMC, 30 minutes at 32° C.
Excerpt: These complexes, normally embedded in the bacterial membrane, are highly pigmented and several outcomes from an assay are possible, including no degradation, partial degradation or complete degradation upon solubilization, or no solubilization. Thus, graded comparative evaluations could be obtained for a set of candidates such as the amphiphiles described herein.
In the engineered strain of R. capsulatus employed, the photosynthetic unit was comprised of a very labile LHI complex and a more resilient RC complex. An ideal amphiphile for this system will extract the intact LHI-RC superassembly from a bacterial membrane preparation and maintain the natural interactions among the components. Amphiphiles with a more disruptive effect will dissociate and denature LHI, leaving only intact RC, and even harsher amphiphiles will cause RC degradation. Each of these various outcomes can be assessed unambiguously via optical spectroscopy (FIG. 2 inset).
Measurements. The starting material for the screening protocols and stability measurements included specialized photosynthetic membranes from an engineered strain of Rhodobacter (R.) capsulatus, U43[pUHTM86Bgl]
To begin the solubilization and purification process, frozen aliquots of R. capsulatus membranes were thawed, homogenized, and equilibrated to 32° C. for 30 minutes. […] For subsequent experiments, the amphiphiles were evaluated at 10-fold CMC during the solubilization step.
The membrane samples were allowed to incubate with the amphiphile for 30 minutes at 32° C. The solubilized material was then separated from the membrane debris in an ultracentrifuge at 315,000×g at 4° C. for 30 minutes. […] After a UV-Vis-nearIR absorption spectrum was recorded, the resuspended pellet was discarded. […] The tubes were then incubated and inverted for 1 hour at 4° C.
Once binding was complete, samples were loaded onto resin-retaining spin columns (e.g., emptied His Spin Trap™ columns; GE Healthcare). The columns were then inserted into a 2 mL microcentrifuge tube to retain the filtered solution during centrifugation. […] Finally, protein was eluted into a fresh microcentrifuge tube with three 0.2 mL elution buffer aliquots (this buffer was identical to binding buffer with the addition of 1 M imidazole).
The R. capsulatus LHI-RC complexes extracted and purified by this procedure contain large numbers of cofactors that have absorptions at distinct wavelengths, and each component of the LHI-RC superassembly has a different inherent stability outside the lipid bilayer. The solubilization protocol outlined above therefore provides a multifaceted assessment of the efficacy of conventional detergents and novel amphiphiles. UV-Vis absorption spectroscopy data obtained at various stages of the protocol allow one to determine which protein components have degraded at these stages. […] The disruption potential was measured as the yield of superassembly extracted during solubilization (or, alternatively and more precisely, as the absence of superassembly in the pellet from the spin following solubilization).
The stabilizing propensity was determined from the spectra of the purified protein. An amphiphile was judged to be mild and stabilizing if it allowed the purification of fully intact LHI-RC superassembly (dominant absorption band at 875 nm). […] An amphiphile was judged to be of intermediate strength if it allowed for the purification of fully intact RC with damaged or missing LHI (dominant absorption at 800 nm with a shoulder at 875 nm; damaged LHI still bound to RC absorbs at 760 nm).
First, solubilization (illustrated in “STEP 1” of FIG. 12) denotes the ability of a surfactant to penetrate, integrate and disrupt a lipid bilayer.

[2] = Critical micelle concentration (CMC) by dye solubilization (Orange OT or DPH); type: physicochemical; settings: for critical micelle concentration (CMC): aqueous solubilization of Orange OT; for CMC / CMC (%): determined by DPH (diphenylhexatriene) or Orange OT
Excerpt: Aqueous solubilization of Orange OT was used to determine critical micelle concentrations (CMC). […] Facile self-association of these amphiphiles under these conditions may be hindered by the hydrophilicity and/or steric bulk of the triglucoside and dimaltoside headgroups.
The Critical Micelle Concentrations (CMCs) of compounds of the invention can be determined by standard techniques known to those of skill in the art. For example, CMCs of the carbohydrate-based amphiphiles described herein can be determined by monitoring uptake of a dye (e.g., Orange OT or 1,6-diphenylhexatriene) with increasing detergent concentration, monitored by UV-visible or fluorescence spectroscopy.

| CMC [2] | CMC (%) [2] | SMILES | further results |
| --- | --- | --- | --- |
| 0.3 mM | 0.03% | CCCCCCC(CCCCCC)(CC(=O)NC(CO[C@@H]1O[C@H](CO)[C@@H](O[C@H]2O[C@H](CO)[C@@H](O)[C@H](O)[C@H]2O)[C@H](O)[C@H]1O)CO[C@@H]1O[C@H](CO)[C@@H](O[C@H]2O[C@H](CO)[C@@H](O)[C@H](O)[C@H]2O)[C@H](O)[C@H]1O)c1ccccc1 [TPA18] | – |
| 3.7 mM | 0.32% | CCCCC(CCCC)(CC(=O)NC(CO[C@@H]1O[C@H](CO)[C@@H](O)[C@H](O)[C@H]1O)(CO[C@@H]1O[C@H](CO)[C@@H](O)[C@H](O)[C@H]1O)CO[C@@H]1O[C@H](CO)[C@@H](O)[C@H](O)[C@H]1O)C1CCCCC1 [TPA22] | – |
| 3.3 mM | 0.34% | CCCCC(CCCC)(CC(=O)NC(CO[C@@H]1O[C@H](CO)[C@@H](O[C@H]2O[C@H](CO)[C@@H](O)[C@H](O)[C@H]2O)[C@H](O)[C@H]1O)CO[C@@H]1O[C@H](CO)[C@@H](O[C@H]2O[C@H](CO)[C@@H](O)[C@H](O)[C@H]2O)[C@H](O)[C@H]1O)c1ccc(C(C)(C)C)cc1 [TPA16] | – |
| 3.4 mM | 0.31% | CCCCC(CCCC)(CC(=O)NC(CO[C@@H]1O[C@H](CO)[C@@H](O)[C@H](O)[C@H]1O)(CO[C@@H]1O[C@H](CO)[C@@H](O)[C@H](O)[C@H]1O)CO[C@@H]1O[C@H](CO)[C@@H](O)[C@H](O)[C@H]1O)c1ccc(C(C)(C)C)cc1 [TPA14] | – |
| 2.6 mM | 0.17% | CC(C)(C)CC(C)(C)c1ccc(OCC(=O)NC(COC2OC(CO)C(O)C(O)C2O)COC2OC(CO)C(O)C(O)C2O)cc1 (stereo not shown) [CGT2] | – |
| 1.4 mM | 0.13% | CCCCCCC(CCCCCC)(CC(=O)NC(CO[C@@H]1O[C@H](CO)[C@@H](O)[C@H](O)[C@H]1O)(CO[C@@H]1O[C@H](CO)[C@@H](O)[C@H](O)[C@H]1O)CO[C@@H]1O[C@H](CO)[C@@H](O)[C@H](O)[C@H]1O)c1ccccc1 [TPA17] | – |

More lines, now with the values behind:

| SMILES | CMC [2] | CMC (%) [2] | further results |
| --- | --- | --- | --- |
| CCCCCCCCCCCCC(=O)NC(CO[C@@H]1O[C@H](CO)[C@@H](O)[C@H](O)[C@H]1O)(CO[C@@H]1O[C@H](CO)[C@@H](O)[C@H](O)[C@H]1O)CO[C@@H]1O[C@H](CO)[C@@H](O)[C@H](O)[C@H]1O [MPA3] | 4.4 mM | 0.35% | extraction of LHI-RC superassembly from R. capsulatus membranes [1]: did not extract any protein; critical micelle concentration (CMC) [2]: 4.4 mM |
| CCCCCCCCCCCCC(=O)NC(CO[C@@H]1O[C@H](CO)[C@@H](O)[C@H](O)[C@H]1O)CO[C@@H]1O[C@H](CO)[C@@H](O)[C@H](O)[C@H]1O [C12-MPA2] | 2.4 mM | 0.15% | yield of membrane protein complexes purified by affinity chromatography ([1]; after extraction from R. capsulatus membranes): far greater yield; membrane protein complexes in the sample extracted ([1]; intracytoplasmic membranes of R. capsulatus): ~30%; extraction of LHI-RC superassembly from R. capsulatus membranes [1]: extracted a moderate amount of intact LHI-RC superassembly; critical micelle concentration (CMC) [2]: 2.4 mM |
| CCCCC(CCCC)(CC(=O)NCCO[C@@H]1O[C@H](CO)[C@@H](O[C@H]2O[C@H](CO)[C@@H](O)[C@H](O)[C@H]2O)[C@H](O)[C@H]1O)c1ccccc1 [TPA4] | 4 mM | 0.25% | extraction of LHI-RC superassembly from R. capsulatus membranes [1]: extracts a significant proportion of the membrane-embedded protein; critical micelle concentration (CMC) [2]: 4.0 mM |
| OC[C@H]1O[C@@H](OCCC23CC4CC(CC(C4)C2)C3)[C@H](O)[C@@H](O)[C@@H]1O [TPA 43] | – | – | Level (S/P solubilization rank and detergent strength) [1]: insoluble |
| CCCCC(CCCC)(CC(=O)NC(COC1OC(CO)C(O)C(O)C1O)(COC1OC(CO)C(O)C(O)C1O)COC1OC(CO)C(O)C(O)C1O)c1ccccc1 (stereo not shown) [TPA3] | – | – | extraction of LHI-RC superassembly from R. capsulatus membranes [1]: no protein is extracted from the membrane |
| CCCCCCC(CCCCCC)(CC(=O)NC(CO[C@@H]1O[C@H](CO)[C@@H](O)[C@H](O)[C@H]1O)CO[C@@H]1O[C@H](CO)[C@@H](O)[C@H](O)[C@H]1O)c1ccccc1 [TPA 36] | 0.56 mM | 0.04% | – |
| CC12CC3CC(C)(C1)CC(CC(=O)NCCO[C@H]1OC(CO)[C@H](O[C@@H]4OC(CO)[C@H](O)C(O)[C@H]4O)C(O)[C@H]1O)(C3)C2 (stereo partly shown) [TPA 44] | 19.1 mM | 1.1% | – |
| CCCCC(CCCC)(CC(=O)NC(CO[C@@H]1O[C@H](CO)[C@@H](O)[C@H](O)[C@H]1O)CO[C@@H]1O[C@H](CO)[C@@H](O)[C@H](O)[C@H]1O)c1ccc(C(C)C)cc1 [TPA 32] | 1.3 mM | 0.091% | – |
| CCCCC(CCCC)(CC(=O)NC(COC1OC(CO)C(O)C(O)C1O)COC1OC(CO)C(O)C(O)C1O)c1ccc(C)cc1 (stereo not shown) [TPA 31] | 2.4 mM | 0.16% | – |
| OCC1O[C@H](OCC23CC4CC(CC(C4)C2)C3)[C@H](O)C(O)[C@H]1O (stereo partly shown) [TPA 42] | – | – | Level (S/P solubilization rank and detergent strength) [1]: insoluble |
| CCCCC(CCCC)(CC(=O)NC(CO[C@@H]1O[C@H](CO)[C@@H](O)[C@H](O)[C@H]1O)CO[C@@H]1O[C@H](CO)[C@@H](O)[C@H](O)[C@H]1O)c1ccc(C(C)(C)C)cc1 [TPA 33] | 0.42 mM | 0.03% | – |
| CCCCCC[C@]1(CC(=O)NC(CO[C@H]2OC(CO)[C@H](O)C(O)[C@H]2O)CO[C@H]2OC(CO)[C@H](O)C(O)[C@H]2O)C2C[C@@H]3C[C@H](C2)C[C@@H]1C3 (stereo partly shown) [TPA 52] | 1.1 mM | 0.075% | – |
| O=C(CC1(C2CCCCC2)CCCCC1)NC(CO[C@@H]1O[C@H](CO)[C@@H](O)[C@H](O)[C@H]1O)CO[C@@H]1O[C@H](CO)[C@@H](O)[C@H](O)[C@H]1O [TPA 50] | 19.2 mM | 1.19% | – |
| CCCCC(CCCC)(CC(=O)NC(CO[C@@H]1O[C@H](CO)[C@@H](O)[C@H](O)[C@H]1O)CO[C@@H]1O[C@H](CO)[C@@H](O)[C@H](O)[C@H]1O)c1ccc(I)cc1 [TPA 28] | 0.89 mM | 0.07% | – |
| CCCC[C@]1(CC(=O)NCCO[C@H]2OC(CO)[C@H](O[C@@H]3OC(CO)[C@H](O)C(O)[C@H]3O)C(O)[C@H]2O)C2C[C@@H]3C[C@H](C2)C[C@@H]1C3 (stereo partly shown) [TPA 46] | 2.6 mM | 0.16% | – |
| CCCCC(CCCC)(CC(=O)NC(CO[C@@H]1O[C@H](CO)[C@@H](O[C@H]2O[C@H](CO)[C@@H](O)[C@H](O)[C@H]2O)[C@H](O)[C@H]1O)CO[C@@H]1O[C@H](CO)[C@@H](O[C@H]2O[C@H](CO)[C@@H](O)[C@H](O)[C@H]2O)[C@H](O)[C@H]1O)c1ccccc1 [TPA5] | – | – | extraction of LHI-RC superassembly from R. capsulatus membranes [1]: solubilized a small proportion of relatively intact LHI-RC superassembly |
| CCCCCCCCCCCCCCCCC(=O)NC(CO[C@@H]1O[C@H](CO)[C@@H](O)[C@H](O)[C@H]1O)CO[C@@H]1O[C@H](CO)[C@@H](O)[C@H](O)[C@H]1O [C16-MPA2] | – | – | Level (S/P solubilization rank and detergent strength) [1]: insoluble |
| O=C(NCCO[C@@H]1O[C@H](CO)[C@@H](O[C@H]2O[C@H](CO)[C@@H](O)[C@H](O)[C@H]2O)[C@H](O)[C@H]1O)C(C1CCCCC1)C1CCCCC1 [DPA 69] | 13.9 mM | 0.82% | – |
| CCCC[C@]1(CC(=O)NC(CO[C@H]2OC(CO)[C@H](O)C(O)[C@H]2O)CO[C@H]2OC(CO)[C@H](O)C(O)[C@H]2O)C2C[C@@H]3C[C@H](C2)C[C@@H]1C3 (stereo partly shown) [TPA 45] | 6.4 mM | 0.41% | – |
| CCCCCCCCCCC(=O)NC(CO[C@@H]1O[C@H](CO)[C@@H](O)[C@H](O)[C@H]1O)CO[C@@H]1O[C@H](CO)[C@@H](O)[C@H](O)[C@H]1O [C10-MPA 2] | 8.1 mM | 0.47% | – |
